# Test results: patent publication US12466855B2, “Labeled oxytocin and method of manufacture and use” (TONIX PHARMA LIMITED, priority 2018, dated 2025)
# Key:
# [1] = PET/MR distribution of ^13N-oxytocin following nasal administration in rats; type: in vivo, rat; conditions: intranasal, approx. 100 μl (1-2 MBq) per nostril in 10% ethanol/90% saline, 60 min PET scan, FIG. 3
# Protocol: (§1) Anesthetised rats are scanned using a microPET scanner (nanoscan microPET/IT MRI, Mediso Ltd, Budapest, Hungary). Body temperature is maintained and circulation and respiration are monitored. First, a structural T2-weighted MRI scan is obtained for attenuation correction. Subsequently, the rat is injected through the tail vein with the ^13N-oxytocin radiotracer. A list-mode protocol is used with a 60-min acquisition time. The list-mode data of the emission scans are split into a dynamic sequence of frames. The data are reconstructed per time frame employing an iterative reconstruction. Appropriate correction factors are applied producing quantitative dynamic images (matrix size (x, y, z) 93, 93, 120. Voxel size 0.4 mm. 3D Tera-Tomo reconstruction with Monte Carlo based estimation, attenuation and scatter correction). A summed PET image of each 60 min scan is co-registered to an average Sprague-Dawley rat MRI brain atlas using PMOD software (version 3.7, PMOD Technologies Ltd, Zurich, Switzerland), a commercially available software package for biomedical image quantification, to acquire data in regions of interest. The results are expressed as dimensionless standardized uptake values (SUVs): [tissue activity concentration (MBq/g)×body weight (g)/injected dose (MBq)].
# The distribution of ^13N-oxytocin following nasal administration in rats is tested. […]
# [2] = PET/MRI distribution of ^13N-oxytocin following IV administration in rats; type: in vivo; conditions: female Sprague Dawley rat, 13.3 MBq in the tail vein (IV), 30 min dynamic PET, FIG. 2
# Protocol: as §1, with “A list-mode protocol is used with a 60-min acquisition time.” left out, “A summed PET image of each 60 min scan is co-registered to an average” left out
# In one study, female Sprague Dawley rats were housed two per cage under a 12 h light/12 h dark cycle at an average temperature of 21° C. and humidity of 55%, with ad libitum access to food and water. […]
# [3] = human patients, migraine headache pain, after administration; cited from earlier work
smiles,measurement,setting,value
"CC[C@H](C)[C@@H]1NC(=O)[C@H](Cc2ccc(O)cc2)NC(=O)[C@@H](N)CSSC[C@@H](C(=O)N2CCC[C@H]2C(=O)N[C@@H](CC(C)C)C(=O)NCC(N)=O)NC(=O)[C@H](CC(N)=O)NC(=O)[C@H](CCC(N)=O)NC1=O [oxytocin, Cys-Tyr-Ile-Gln-Asn-Cys-Pro-Leu-Gly]",brain uptake / CNS penetration (PET/MR overlay),[1],lack of CNS penetration
same,brain uptake / CNS penetration (PET and MR scans),[2],lack of CNS penetration
same,initial period before onset of significant analgesia,[3],up to 2 hours
same,time to maximal analgesic effect,[3],4 h
